Measured values published in the NIST ThermoML archive (doi:10.1021/je900596d).

Conditions: Liquid; for mass density: Vibrating tube method

FC(F)=C(F)C(F)(F)F [hexafluoropropene]
Conditions	mass density [kg/m3]	vapor or sublimation pressure [kPa]
353.13 K, 6254.1 kPa	1084.82	–
353.13 K, 6293.2 kPa	1085.83	–
353.13 K, 6333.5 kPa	1086.9	–
353.13 K, 6371.8 kPa	1087.85	–
353.13 K, 6409 kPa	1088.79	–
353.13 K, 6445.8 kPa	1089.69	–
353.13 K, 6484.6 kPa	1090.62	–
353.13 K, 6524.7 kPa	1091.6	–
353.13 K, 6563.9 kPa	1092.58	–
353.13 K, 6604.4 kPa	1093.48	–
353.13 K, 6642.7 kPa	1094.43	–
353.13 K, 6683.7 kPa	1095.45	–
353.13 K, 6726.1 kPa	1096.44	–
353.13 K, 6764 kPa	1097.33	–
353.13 K, 6802.8 kPa	1098.22	–
353.13 K, 6841.6 kPa	1099.15	–
353.13 K, 6882 kPa	1100.04	–
353.13 K, 6922.2 kPa	1101.01	–
353.13 K, 6960.8 kPa	1101.88	–
353.13 K, 7001.3 kPa	1102.71	–
353.13 K, 7038.1 kPa	1103.6	–
353.13 K, 7076.1 kPa	1104.43	–
353.13 K, 7114.4 kPa	1105.3	–
353.13 K, 7154.8 kPa	1106.21	–
353.13 K, 7191.9 kPa	1106.87	–
353.13 K, 7231.5 kPa	1107.79	–
353.13 K, 7270.9 kPa	1108.59	–
353.13 K, 7309.7 kPa	1109.52	–
353.13 K, 7347.2 kPa	1110.31	–
353.13 K, 7384.6 kPa	1111.14	–
353.13 K, 7426.6 kPa	1111.94	–
353.13 K, 7521.7 kPa	1113.95	–
353.13 K, 7570.3 kPa	1114.91	–
353.13 K, 7620.7 kPa	1116.02	–
353.13 K, 7669.4 kPa	1116.98	–
353.13 K, 7719.8 kPa	1117.99	–
353.13 K, 7771.4 kPa	1119.1	–
353.13 K, 7821.6 kPa	1120.08	–
353.13 K, 7875 kPa	1121.14	–
353.13 K, 7925.8 kPa	1122.03	–
353.13 K, 7977.1 kPa	1123.21	–
353.13 K, 8027.6 kPa	1124.05	–
353.13 K, 8077.8 kPa	1124.94	–
353.13 K, 8128 kPa	1125.99	–
353.13 K, 8179.4 kPa	1126.95	–
353.13 K, 8229.7 kPa	1127.86	–
353.13 K, 8281.6 kPa	1128.88	–
353.13 K, 8333.3 kPa	1129.8	–
353.13 K, 8384.4 kPa	1130.91	–
353.13 K, 8434.2 kPa	1131.83	–
353.13 K, 8483.8 kPa	1132.74	–
353.13 K, 8533 kPa	1133.6	–
353.13 K, 8585.1 kPa	1134.64	–
353.13 K, 8636.6 kPa	1135.48	–
353.13 K, 8688.1 kPa	1136.4	–
353.13 K, 8739.4 kPa	1137.27	–
353.13 K, 8787.9 kPa	1138.25	–
353.13 K, 8838.8 kPa	1138.97	–
353.13 K, 8890.6 kPa	1140.08	–
353.13 K, 8940.9 kPa	1140.78	–
353.13 K, 8990.5 kPa	1141.72	–
353.13 K, 9042.5 kPa	1142.55	–
353.13 K, 9093.8 kPa	1143.46	–
353.13 K, 9145.5 kPa	1144.29	–
353.13 K, 9199.3 kPa	1145.07	–
353.13 K, 9251.5 kPa	1145.95	–
353.13 K, 9300.6 kPa	1146.86	–
353.13 K, 9353.4 kPa	1147.68	–
353.13 K, 9405.2 kPa	1148.61	–
353.13 K, 9453.7 kPa	1149.26	–
353.13 K, 9503.3 kPa	1150.03	–
353.13 K, 9555.6 kPa	1150.83	–
353.13 K, 9607.5 kPa	1151.69	–
353.13 K, 9658.7 kPa	1152.54	–
353.13 K, 9709.8 kPa	1153.31	–
353.13 K, 9762.3 kPa	1154.19	–
353.13 K, 9811.9 kPa	1154.85	–
353.13 K, 9863.5 kPa	1155.62	–
353.13 K, 9915.1 kPa	1156.42	–
353.13 K, 9969.2 kPa	1157.38	–
353.23 K, Closed cell (Static) method	–	2782.3
355.18 K, 2917.9 kPa	845.6	–
355.18 K, 2920.4 kPa	846.43	–
355.18 K, 2923.2 kPa	847.74	–
355.18 K, 2925.7 kPa	848.75	–
355.18 K, 2927.7 kPa	849.49	–
355.18 K, 2929.8 kPa	850.21	–
355.18 K, 2931.8 kPa	850.86	–
355.18 K, 2933.8 kPa	851.6	–
355.18 K, 2936.9 kPa	852.8	–
355.18 K, 2939.2 kPa	853.64	–
355.18 K, 2941.8 kPa	854.46	–
355.18 K, 2944.4 kPa	855.06	–
355.18 K, 2946.6 kPa	855.85	–
355.18 K, 2948.8 kPa	856.52	–
355.18 K, 2952.8 kPa	857.85	–
355.18 K, 2960 kPa	859.85	–
355.18 K, 2967.7 kPa	861.92	–
355.18 K, 2975.4 kPa	863.9	–
355.18 K, 2989.1 kPa	868.46	–
355.18 K, 2995.9 kPa	870.43	–
355.18 K, 3004.5 kPa	872.46	–
355.18 K, 3019.2 kPa	876.04	–
355.18 K, 3027.3 kPa	878.11	–
355.18 K, 3033.9 kPa	879.53	–
355.18 K, 3039.9 kPa	880.6	–
355.18 K, 3094.7 kPa	890.53	–
355.18 K, 3105.5 kPa	892.47	–
355.18 K, 3126.6 kPa	896.05	–
355.18 K, 3136.9 kPa	897.86	–
355.18 K, 3146.9 kPa	899.37	–
355.18 K, 3157.8 kPa	901.09	–
355.18 K, 3167.8 kPa	902.86	–
355.18 K, 3178.7 kPa	904.31	–
355.18 K, 3189.5 kPa	906.01	–
355.18 K, 3200.1 kPa	907.48	–
355.18 K, 3210.7 kPa	909	–
355.18 K, 3221.2 kPa	910.46	–
355.18 K, 3231.6 kPa	911.83	–
355.18 K, 3252.1 kPa	914.62	–
355.18 K, 3263.1 kPa	916.04	–
355.18 K, 3273.1 kPa	917.41	–
355.18 K, 3283.4 kPa	918.63	–
355.18 K, 3294.3 kPa	920.14	–
355.18 K, 3304.3 kPa	921.35	–
355.18 K, 3325.4 kPa	923.75	–
355.18 K, 3347.5 kPa	926.36	–
355.18 K, 3368.1 kPa	928.74	–
355.18 K, 3388.8 kPa	930.98	–
355.18 K, 3410.2 kPa	933.28	–
355.18 K, 3453.4 kPa	937.53	–
355.18 K, 3496.3 kPa	941.66	–
355.18 K, 3516.9 kPa	943.53	–
